Measurements from US9610461B2, “Combination of a MC1R receptor agonist and UVB for the treatment and/or prevention of pigmentation disorders” (GALDERMA RESEARCH & DEVELOPMENT, priority 2012, dated 2017).

Legend:
mouse SKH2 [1] = test: In vivo pro-pigmenting activity by topical route with NB-UVB, quantification of pigmentation by image analysis at the end of study; conditions: 8% topical on the back of SKH2 mice, in combination with NB-UVB irradiation (60 mJ/cm2)
Experimental: (§1) In mice, melanocytes are not present in the epidermis of hair-covered areas but are mainly present in the hair follicles. Pigmentation can be induced by irradiation with UVB in combination with topical or oral agents. The pigmentation changes can be quantified by various means such as clinical score pigmentation and pigmentation measurement by image analysis.
(§2) The evaluation of the MC1R receptor agonists pro-pigmenting activity in combination with NB-UVB irradiation (60 mJ/cm2) is performed by topical application on the back of the mouse SKH2 during 43 days with MC1R agonist compound A at 8% or MC1R agonist compound B at 8% in combination with NB-UVB radiation.
(§3) Practically, the animals were irradiated using the system Biospectra equipped NB-UVB lamps (peak emission maximum at 312 nm) irradiation at 3 times per week at 60 mJ/cm^2 on Monday, Wednesday and Friday. The treatment is carried out 5 days a week and 50 μl of the test product (compounds A or B) is diluted in the vehicle and applied on the back. In the case of associations with radiation, the compounds are administered after irradiation.
(§4) Then, the pigmentation changes is quantified by clinical score pigmentation and pigmentation measurement by image analysis.
At the end of the study, for each animal, two digital photographs of the skin of the back are made with a high quality dermascope and digital camera such as the LiteScope™. […]

mouse SKH2 [2] = test: In vivo pro-pigmenting activity by topical route with NB-UVB, clinical score of pigmentation; conditions: 8% topical on the back of SKH2 mice, 43 days, in combination with NB-UVB irradiation (60 mJ/cm2); versus irradiated group treated with the vehicle
Experimental: as §1, §2, §3, §4
The clinical score of animals is performed 1 time per week before irradiation. The pigmentation is evaluated with a score on a scale of 0 to 4. […]

| Compound | pigmentation level at the end of the study by image analysis (FIG. 3) (mouse SKH2 [1]) | pigmentation of the skin (clinical score of pigmentation, FIGS. 1 and 2) (mouse SKH2 [2]) |
| --- | --- | --- |
| CCOC(=O)C1(C2CCCCC2)CCN(C(=O)[C@@H](Cc2ccc(OC)cc2)NC(=O)NCCc2c[nH]cn2)CC1 [Compound A, 4-Cyclohexyl-1-[(R)-2-{3-[2-(1H-imidazol-4-yl)-ethyl]-ureido}-3-(4-methoxy-phenyl)-propionyl]-piperidine-4-ethyl-carboxylate] | synergistic effect is confirmed | significantly increases the pigmentation of the skin |
| COc1ccc(C[C@@H](NC(=O)CCc2nc[nH]c2C)C(=O)N2CC(OCC3CC3)(c3ccccc3C)C2)cc1 [compound B, N—[(R)-2-(3-Cyclopropylmethoxy-3-o-tolyl-azetidin-1-yl)-1-(4-methoxy-benzyl)-2-oxo-ethyl]-3-(5-methyl-1H-imidazol-4-yl)-propionamide] |  | significantly increases the pigmentation of the skin |
